# US9242009B2, “Compositions and methods to treat neurodegenerative diseases” (The General Hospital Corporation, priority 2012, dated 2016)
# Experiments:
# SH-SY5Y = assay: Intracellular GSH levels in SH-SY5Y (HPLC); assay type: cell-based, Human; conditions: 50 μM, 8 hours
# Procedure: Intracellular GSH level of SH-SY5Y was measured using HPLC method as previously reported (Kimura et al. (2009) Antioxidants & Redox Signaling 12, 1-13). Briefly, cells were seeded into 6 cm dishes (5×10^5 cells per dish) and treated with 50 μM H2S donors or memantine with or without 2 mM glutamate for 8 hours, followed by washing with ice-cold PBS. Cells were scraped and transferred to a microfuge tube and sonicated. Some fraction of lysate was used for protein assay. After centrifugation, 75 μl of supernatant, 26 μl of 2-(cyclohexylamino) ethanesulfonic acid (CHES, 0.5 M, PH 8.4), and 4 μl of 50 μM MBB were mixed and incubated at room temperature in dark for 30 minutes. Acetic acid (100 μl, 30% v/v) was added, followed by centrifugation at 15,000×g for 10 min after 5 min incubation of the tube on ice. The supernatant was analyzed using HPLC at wavelength of λex=370 nm and λem=486 nm.
# [1] = test system: phosphorylated ERK1/2 at threonine 202 and tyrosine 204; assay: Immunoblot of phosphorylated ERK1/2 in SH-SY5Y after OGD; assay type: cell-based, Human; conditions: 50 μM added 8 hours after end of OGD
# Procedure: (§1) OGD for SH-SY5Y was performed by placing cells in a hypoxia chamber ([…] Technologies Inc.) for 15 hours, followed by 24 hours of reoxygenation as previously reported (FIG. 3A) (Serra-Pérez et al. (2008) Journal of Neurochemistry 106, 1237-1247). Briefly, medium was replaced with glucose-free RPMI 1640 with L-glutamine (Cellgro by Mediatech, Inc), deoxygenated with anaerobic gas mixture (93% N2-5% CO2-2% H2) for 30 minutes before use. Cells were then placed in a hypoxia chamber, flushed with anaerobic gas mixture (93% N2-5% CO2-2% H2) and incubated at 37° C. […]
# (§2) Protein levels in SH-SY5Y were determined by standard immunoblot techniques using primary antibodies (1:1,000, Cell Signaling Technology Inc., Danvers, Mass.) against cleaved caspase-3, caspase-3, phosphorylated Akt at threonine 308, Akt, phosphorylated ERK1/2 at threonine 202 and tyrosine 204, Erk1/2, β-tubulin and phosphorylated tau protein at serine 202 and threonine 205 (1:250; Thermo scientific, MN1020), tau protein (1:1000; Thermo scientific, MN1010). Bound antibody was detected with a horseradish peroxidase-linked antibody directed against rabbit IgG (1:10,000˜1:25,000; Cell Signaling Technology Inc.), or mouse IgG (1:2,000; GE healthcare, NA931V) and was visualized using chemiluminescence with ECL Advance kit (GE healthcare).
# Aβ1-42 = conditions: LPS challenge for 7 days
# cleaved caspase-3 = assay: Immunoblot of cleaved caspase-3 in SH-SY5Y after OGD; assay type: cell-based, Human; conditions: 50 μM added 8 hours after end of OGD; 15 hours OGD, 24 hours reoxygenation
# Procedure: as §1, §2
# [2] = test system: murine primary cortical neurons; assay: Intracellular calcium level [Ca2+]i (Fura-2/AM) with or without glutamate; assay type: cell-based, mice; conditions: 20 μM
# [3] = test system: phosphorylated tau protein at serine 202 and threonine 205; assay: LPS-induced tau phosphorylation in mice hippocampus (immunoblot); assay type: in vivo; conditions: 90 μmol/kg pretreatment
# [4] = test system: murine primary cortical neurons; assay: Cytotoxicity of H2S donors to murine primary cortical neurons (LDH release); assay type: cell-based, mice; conditions: 50 μM; 24 hours; without memantine
# Procedure: A microtiter plate containing cells was centrifuged at 250×g for 10 minutes and the supernatant was used for LDH measurement with LDH Cytotoxicity Detection Kit (Roche). After aspirating the medium, remaining cells were washed with PBS, then, 100 μl of 1% Triton-X was added to each well, followed by incubation at 37° C. for 30 minutes. Medium and lysates were used for LDH measurement at wavelength 492 nm. Percentage of released LDH was calculated with following formula: {LDH (medium)/LDH (medium+cell)×100}. Average value of control (cells without OGD) was deducted as background.
# [5] = test system: phosphorylated Akt at threonine 308; assay: Immunoblot of phosphorylated Akt in SH-SY5Y after OGD; assay type: cell-based, Human; conditions: 50 μM added 8 hours after end of OGD
# [6] = test system: murine primary cortical neurons; assay: Oxygen-glucose deprivation (OGD) of murine primary cortical neurons, LDH release; assay type: cell-based, mice
# Procedure: Primary neuronal cultures were prepared from the cortex of embryonic day 15 C57BL6J mice. In brief, brains were harvested and the hemispheres were dissected under a microscope. The cortical neurons were dissociated in Neurobasal medium (Gibco) with B27 supplement (antioxidant plus, Gibco). The cells were seeded into 24 well plates coated with poly-D-lysine (Becton Dickinson Labware, 2×10^5 cells per well), followed by the medium-change with fresh one on the next day. The half of culture medium was replaced with Neurobasal medium witn B27 supplement (antioxidant minus) every other day, and the cultures were maintained at 37° C. in 95% air/5% CO2 in a humidified incubator. Cells were used for experiments 11 days after seeding.
# OGD for primary cortical neurons was performed with the similar protocol as above (FIG. 3B). Briefly, the culture medium was replaced with deoxygenated Neurobasal medium without glucose, and then placed in the hypoxic chamber for 2.5 hours. After OGD, the medium was replaced with Neurobasal medium with glucose and incubated for 21 hours at 37° C. in 95% air/5% CO2 in a humidified incubator. […]
# A microtiter plate containing cells was centrifuged at 250×g for 10 minutes and the supernatant was used for LDH measurement with LDH Cytotoxicity Detection Kit (Roche). […] Percentage of released LDH was calculated with following formula: {LDH (medium)/LDH (medium+cell)×100}. […]
# mice challenged with LPS = assay: LPS-induced cognitive impairment, Morris water-maze
smiles,measurement,setting,value
"C[C@]12C[C@@H]3C[C@](C)(C1)C[C@@](NC(=O)c1ccc(-c4cssc4=S)cc1)(C3)C2 [S-memantine, N-((1r,3R,5S,7r)-3,5-dimethyladamantan-1-yl)-4-(3-thioxo-3H-1,2-dithiol-4-yl)-benzamide]",Magnitude of increase of GSH levels compared with Na2S or ACS48,SH-SY5Y,greater than with Na2S or ACS48
same,Intracellular GSH levels,SH-SY5Y; with 2 mM glutamate,restored intracellular GSH levels
same,Intracellular GSH levels,SH-SY5Y; without glutamate,increased intracellular GSH levels
same,Dephosphorylation of ERK after OGD,[1],attenuated dephosphorylation of ERK
same,"Aβ1-42 accumulation in mice cortex, or hippocampus",Aβ1-42; 90 μmol/kg pretreatment,prevented Aβ1-42 accumulation
same,Prevention of Aβ1-42 accumulation compared with memantine,Aβ1-42,prevented Aβ1-42 accumulation more markedly than did memantine
same,Caspase-3 activation after OGD,cleaved caspase-3,prevented caspase-3 activation
same,Glutamate-induced calcium accumulation,[2]; 100 μM glutamate,suppressed calcium accumulation
same,Magnitude of calcium accumulation compared with Na2S or ACS48,[2]; without glutamate,markedly smaller than that induced by Na2S or ACS48
same,LPS-induced tau phosphorylation at serine 202 and threonine 205 in mice hippocampus,[3],prevented LPS-induced tau phosphorylation
same,LDH release (cytotoxicity),[4],did not induce LDH release
same,Akt phosphorylation after OGD,[5],did not affect Akt phosphorylation
same,Neuroprotective effect after OGD (LDH release),"[6]; 50 μM added 30 minutes after end of OGD, 2.5 hours OGD, 21 hours reoxygenation",more robust neuroprotective effects compared to ACS48 or memantine
same,Cell viability after OGD,[6]; incubation starting at 30 minutes or 2 hours after OGD,improved
same,Swimming speed in Morris water-maze test,mice challenged with LPS; 90 μmol/kg i.p.,did not change it
same,Latency until getting platform in Morris water-maze test,"mice challenged with LPS; 90 μmol/kg i.p. 30 min before LPS, 4 hours after LPS-challenge",improved latency
